Some results are limits rather than exact numbers.

The assay deals with T1, MAGL protein (Homo sapiens, UniProt Q99685).
T1 sequence (Q99685 1-303): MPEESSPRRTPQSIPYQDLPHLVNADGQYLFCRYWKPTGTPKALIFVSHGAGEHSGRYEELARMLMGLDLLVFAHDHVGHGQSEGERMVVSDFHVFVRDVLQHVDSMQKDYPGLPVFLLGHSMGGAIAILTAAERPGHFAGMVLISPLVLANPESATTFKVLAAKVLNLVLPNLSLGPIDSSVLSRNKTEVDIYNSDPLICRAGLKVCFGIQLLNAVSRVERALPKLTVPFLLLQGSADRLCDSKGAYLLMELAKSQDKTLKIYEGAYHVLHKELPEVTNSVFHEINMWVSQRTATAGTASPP
Nature of the assay: 2-AG assay: MAGL inhibitory activity by hydrolysis of 2-arachidonoylglycerol to arachidonic acid, followed by mass spectrometry. It counts as biochemical. The note with it: 8 μM 2-arachidonoylglycerol, 15 min preincubation, 30 min reaction at RT, RapidFire MS readout. The essentials:
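MAGL was preincubated 15 min at RT with compound (12.5 to […], 3-fold steps) in 50 mM TRIS, 1 mM EDTA, 0.01% Tween-20, 2.5% DMSO. The reaction ran 30 min at RT with 8 μM 2-AG. Arachidonic acid was quantified by RapidFire SPE-MS/MS against a d8-arachidonic acid internal standard.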
For orientation: IC50 means the concentration that gives 50% inhibition. Low readings indicate inhibition by little substance, high ones a need for much substance. The compound `O=C(N1CC2(CC(Oc3cnc(C(F)(F)F)cn3)C2)C1)N1CC2(CC(c3nnc(C4(O)CC4)[nH]3)C2)C1` [compound 76] yielded an IC50 of 38 nM.

For the compound `CS(=O)(=O)c1ccc(CC2CCC3(C2)CN(C(=O)N2CC4(CC(c5nnc(C6CC6)[nH]5)C4)C2)C3)cc1` (stereo not shown) [compound 77], the IC50 amounted to 0.69 nM. As for `O=C(N1CC2(CC(Oc3ccc(C(F)(F)F)nn3)C2)C1)N1CC2(CC(c3nnc(C4CC4)[nH]3)C2)C1` [compound 78], the IC50 is 3.92 nM. Next, `O=C(N1CC2(CC(Oc3ccc(C(F)(F)F)nn3)C2)C1)N1CC2(CC(c3nnc(C4(O)CC4)[nH]3)C2)C1` [compound 79]: 43.4 nM; `O=C(N1CC(c2ccc(N3CCS(=O)(=O)CC3)nc2)C1)N1CC2(CC(c3nnc(C4CC4)[nH]3)C2)C1` [compound 80]: 58.3 nM. Turning to `O=C(N1CC(c2ccc(NC3CCS(=O)(=O)C3)nc2)C1)N1CC2(CC(c3nnc(C4CC4)[nH]3)C2)C1` (stereo not shown) [compound 81], the IC50 was 28.2 nM. The result for `CC1(O)CN(c2ccc(C3CN(C(=O)N4CC5(CC(c6nnc(C7CC7)[nH]6)C5)C4)C3)cn2)C1` [compound 82] reads 20.5 nM. Next, `O=C(N1CC2(CC(c3nnc(C4CC4)[nH]3)C2)C1)N1CC2(CC(N3CC(C(F)(F)F)C3)C2)C1` [compound 83]: 25.7 nM; `O=C(N1CC2(CC(c3nnc(C4CC4)[nH]3)C2)C1)N1CC2(CC(N3CC(CC(F)(F)F)C3)C2)C1` [compound 84]: 32.7 nM; `O=C(N1CC2(CCN(Cc3ccc(S(=O)(=O)C(F)(F)F)cc3)CC2)C1)N1CC2(CC(c3nnc(C4CC4)[nH]3)C2)C1` [compound 85]: 1.02 nM. Next, `O=C(N1CC2(CC(c3nnc(C4CC4)[nH]3)C2)C1)N1CC2(CN(Cc3ccc(S(=O)(=O)C(F)(F)F)cc3)C2)C1` [compound 86]: 0.92 nM. With `O=C(N1CC2(CC(c3nnc(C4CC4)[nH]3)C2)C1)N1CC2(C1)CN(S(=O)(=O)c1cccc(OC(F)(F)F)c1)C2` [compound 87], the IC50 was 8.21 nM. For the compound `O=C(N1CC2(CC(c3nnc(C4CC4)[nH]3)C2)C1)N1CC2(CC[C@H](Oc3cnc(C(F)(F)F)cn3)C2)C1` [compound 90], the IC50 is 7.88 nM.

Compound `O=C(N1CC2(CC(c3nnc(C4CC4)[nH]3)C2)C1)N1CC2(C1)CN(S(=O)(=O)c1ccc(OC(F)(F)F)cc1)C2` [compound 91] yielded an IC50 of 4.05 nM. Next, `O=C(N1CC2(CC(c3nnc(C4(O)CC4)[nH]3)C2)C1)N1CC2(C1)CN(S(=O)(=O)c1ccc(OC(F)(F)F)cc1)C2` [compound 92]: 44 nM. Next, `O=C(N1CC2(CC(c3nnc(C4CCC4)[nH]3)C2)C1)N1CC2(C1)CN(S(=O)(=O)c1ccc(OC(F)(F)F)cc1)C2` [compound 93]: 143 nM.

Take `O=C(N1CC2(CC(c3nnc(C4CC4)[nH]3)C2)C1)N1CC2(C1)CN(S(=O)(=O)c1ccccc1OC(F)(F)F)C2` [compound 94]: it took 3.88 nM to reach half-maximal inhibition (IC50).

`O=C(N1CC2(CC(c3nnc(C4(O)CC4)[nH]3)C2)C1)N1CC2(C1)CN(S(=O)(=O)c1ccccc1OC(F)(F)F)C2` [compound 95] yielded an IC50 of 47.5 nM. This IC50 lies about 12-fold higher than the previous one.

As to `O=C(N1CC2(CC(c3nnc(C4CC4)[nH]3)C2)C1)N1CC2(C1)CN(S(=O)(=O)c1ccccc1C(F)(F)F)C2` [compound 96], it took 2.94 nM to reach half-maximal inhibition (IC50). The result for `O=C(N1CC2(CC(c3nnc(C4(O)CC4)[nH]3)C2)C1)N1CC2(C1)CN(S(=O)(=O)c1ccccc1C(F)(F)F)C2` [compound 97] reads 27.9 nM. In turn, `O=C(N1CC2(CC(c3nnc(C4CC4)[nH]3)C2)C1)N1CC2(C1)CN(S(=O)(=O)c1ccc(F)cc1C(F)(F)F)C2` [compound 98] displayed an IC50 of 1.92 nM. The result for `O=C(N1CC2(CC(c3nnc(C4(O)CC4)[nH]3)C2)C1)N1CC2(C1)CN(S(=O)(=O)c1cccc(C(F)(F)F)c1)C2` [compound 100] reads 66.1 nM; that for `O=C(N1CC2(CC(c3nnc(C4CC4)[nH]3)C2)C1)N1CC2(C1)CN(S(=O)(=O)c1cc(F)cc(C(F)(F)F)c1)C2` [compound 101], 3.7 nM; that for `O=C(N1CC2(CC(c3nnc(C4CC4)[nH]3)C2)C1)N1CC2(C1)CN(S(=O)(=O)c1ccc(F)c(C(F)(F)F)c1)C2` [compound 102], 15 nM. The result for `O=C(N1CC2(CC(c3nnc(C4CC4)[nH]3)C2)C1)N1CC2(C1)CN(S(=O)(=O)c1ccc(C(F)(F)F)cc1)C2` [compound 103] reads 25 nM; that for `O=C(N1CC2(CC(c3nnc(C4(O)CC4)[nH]3)C2)C1)N1CC2(C1)CN(S(=O)(=O)c1ccc(C(F)(F)F)cc1)C2` [compound 104], 198 nM; that for `O=C(N1CC2(CC(c3nnc(C4CC4)[nH]3)C2)C1)N1CC2(C1)CN(S(=O)(=O)c1ccc(F)cc1F)C2` [compound 105], 21.3 nM. `O=C(N1CC2(CC(c3nnc(C4CC4)[nH]3)C2)C1)N1CC2(C1)CN(S(=O)(=O)c1ccc(F)c(F)c1)C2` [compound 106] showed an IC50 of 20.6 nM. The IC50 values of the last two compounds are within 1.5-fold of each other. The result for `O=C(N1CC2(CC(c3nnc(C4CC4)[nH]3)C2)C1)N1CC2(C1)CN(S(=O)(=O)c1ccc(F)cc1Cl)C2` [compound 107] reads 3.14 nM. The result for `COc1ccccc1S(=O)(=O)N1CC2(CN(C(=O)N3CC4(CC(c5nnc(C6CC6)[nH]5)C4)C3)C2)C1` [compound 108] reads 34.1 nM; that for `O=C(N1CC2(CC(c3nnc(C4CC4)[nH]3)C2)C1)N1CC2(C1)CN(S(=O)(=O)c1cncc(C(F)(F)F)c1)C2` [compound 109], 20.1 nM. Next, `O=C(N1CC2(CC(Cc3ccc(C(F)(F)F)cn3)C2)C1)N1CC2(CC(c3nnc(C4CC4)[nH]3)C2)C1` [compound 110]: 0.21 nM. Compound `O=C(N1CC2(CC(Cc3ccc(C(F)(F)F)cn3)C2)C1)N1CC2(CC(c3nnc(C4(O)CC4)[nH]3)C2)C1` [compound 111] came in with an IC50 of 0.6 nM. This IC50 lies about 2.9-fold higher than the previous one. The result for `O=C(N1CC2(CC(Cc3ccc(C(F)(F)F)cn3)C2)C1)N1CC2(CC(c3nnc(C4CCC4)[nH]3)C2)C1` [compound 112] reads 2.04 nM; that for `O=C(N1CC2(CC(Cc3cncc(Cl)c3)C2)C1)N1CC2(CC(c3nnc(C4CC4)[nH]3)C2)C1` [compound 113], 0.09 nM. The result for `O=C(N1CC2(CC(Cc3cncc(C(F)(F)F)c3)C2)C1)N1CC2(CC(c3nnc(C4CC4)[nH]3)C2)C1` [compound 114] reads 0.22 nM. The result for `O=C(N1CC2(CC(Cc3ncc(F)cc3F)C2)C1)N1CC2(CC(c3nnc(C4CC4)[nH]3)C2)C1` [compound 115] reads 0.2 nM. Turning to `O=C(N1CC2(CC(Cc3ncc(F)cc3F)C2)C1)N1CC2(CC(c3nnc(C4(O)CC4)[nH]3)C2)C1` [compound 116], the IC50 amounted to 2.39 nM.

`O=C(N1CC2(CC(Cc3ncc(F)cc3Cl)C2)C1)N1CC2(CC(c3nnc(C4CC4)[nH]3)C2)C1` [compound 117] returned an IC50 of 0.1 nM. Against the preceding compound, the IC50 is about 24-fold lower. The result for `O=C(N1CC2(CC(Cc3cc(C(F)(F)F)ccn3)C2)C1)N1CC2(CC(c3nnc(C4CC4)[nH]3)C2)C1` [compound 118] reads 0.19 nM; that for `CS(=O)(=O)c1ccc(CC2CC3(C2)CN(C(=O)N2CC4(CC(c5nnc(C6CC6)[nH]5)C4)C2)C3)nc1` [compound 119], 6.52 nM; that for `CS(=O)(=O)c1cncc(CC2CC3(C2)CN(C(=O)N2CC4(CC(c5nnc(C6CC6)[nH]5)C4)C2)C3)c1` [compound 120], 42 nM. Next, `O=C(N1CC2(CC(Cc3cc(F)cc(C(F)(F)F)c3)C2)C1)N1CC2(CC(c3nnc(C4CC4)[nH]3)C2)C1` [compound 121]: 0.01 nM.

Turning to `O=C(N1CC2(CC(Cc3cc(F)cc(C(F)(F)F)c3)C2)C1)N1CC2(CC(c3nnc(C4(O)CC4)[nH]3)C2)C1` [compound 122], the IC50 is < 0.05 nM.

`CS(=N)(=O)c1ccc(CC2CC3(C2)CN(C(=O)N2CC4(CC(c5nnc(C6CC6)[nH]5)C4)C2)C3)cc1` (stereo not shown) [compound 123] had an IC50 of 3.98 nM. The result for `CS(=N)(=O)c1cccc(CC2CC3(C2)CN(C(=O)N2CC4(CC(c5nnc(C6CC6)[nH]5)C4)C2)C3)c1` (stereo not shown) [compound 124] reads 2.46 nM; that for `CS(=O)(=O)c1ccc(CC2CC3(C2)CN(C(=O)N2CC4(CC(c5nnc(C6CC6)[nH]5)C4)C2)C3)c(F)c1` [compound 130], 0.09 nM. The result for `O=C(N1CC2(CC(Oc3ccc(C(F)(F)F)nc3)C2)C1)N1CC2(CC(c3nnc(C4CC4)[nH]3)C2)C1` [compound 131] reads 2.79 nM; that for `O=C(N1CC2(CC(Oc3ccc(C(F)(F)F)nc3)C2)C1)N1CC2(CC(c3nnc(C4(O)CC4)[nH]3)C2)C1` [compound 132], 5.98 nM. Next, `O=C(N1CC2(CC(Oc3cncc(C(F)(F)F)n3)C2)C1)N1CC2(CC(c3nnc(C4CC4)[nH]3)C2)C1` [compound 133]: 1.73 nM; `O=C(N1CC2(CCC(Oc3ncc(C(F)(F)F)cn3)CC2)C1)N1CC2(CC(c3nnc(C4CC4)[nH]3)C2)C1` [compound 134]: 1.89 nM; `O=C(N1CC2(CC(c3nnc(C4CC4)[nH]3)C2)C1)N1CC2(C1)CN(S(=O)(=O)C13CC(C(F)(F)F)(C1)C3)C2` [compound 135]: 25.3 nM. As for `O=C(N1CC2(CCC(Cc3cnc(C(F)(F)F)cn3)CC2)C1)N1CC2(CC(c3nnc(C4CC4)[nH]3)C2)C1` [compound 136], the IC50 came to 0.57 nM.

`O=C(N1CC2(CCC(Cc3cnc(C(F)(F)F)cn3)CC2)C1)N1CC2(CC(c3nnc(C4(O)CC4)[nH]3)C2)C1` [compound 137] registered a concentration for half-maximal inhibition (IC50) of 6.79 nM. As for `O=C(N1CC2(CCC(Cc3ccc(Cl)cn3)CC2)C1)N1CC2(CC(c3nnc(C4CC4)[nH]3)C2)C1` [compound 138], the half-inhibitory concentration (IC50) turned out to be 0.3 nM. This IC50 lies about 23-fold lower than the previous one.

The record behind these values is patent US20250099448A1, “HETEROCYCLIC COMPOUNDS” (Hoffmann-La Roche Inc., priority 2022, published 2025).
